Here are results for four compounds from patent publication US20070010529A1, “Nitrogenous heterocyclic compounds and medical use thereof” (priority 2003, published 2007).

In series [1] the test system is TNF-α production in THP-1 (human monocyte cell line). As to the kind of experiment: Inhibitory activity against TNF-α production using human cell lines (LPS-stimulated THP-1). Format: cell-based. Conditions: 1.5 h, THP-1 cells stimulated by LPS, cultured for 90 minutes, TNF-α by ELISA. The procedure: (2) Inhibitory Activity Against TNF-α Production Using Human Cell Lines
Using THP-1 which is a human monocyte cell line, the inhibitory effect of the compound of the present invention against TNF-α production stimulated by lipopolysaccharide (LPS) was studied.
Each 50 μL of lipopolysaccharide (LPS; Difco #3120-25-0) prepared to a concentration of 40 ng/mL using RPMI-1640 medium containing 10% fetal calf serum (hereinafter abbreviated as RPMI-1640) and RPMI-1640 containing the compound of the present invention was added to a 96-well plate for cell culture. One hundred μL of the cell suspension of THP-1 (Dainippon Pharmaceutical Co., Ltd, #06-202) prepared to a cell density of 2×10^6 cells/mL using RPMI-1640 was added and cultured for 90 minutes at 37° C. in an incubator (5% CO2, 95% air). After completion of the reaction, the culture medium supernatant was recovered and the amount of produced TNF-α was measured using an ELISA kit (Invitrogen, #850090192).
The inhibitory activity against TNF-α production, which is the effect of the compound of the present invention, was calculated as an inhibition rate (%) by the following equation: Inhibition rate (%)={(AC minus AX)/(AC minus AB)}×100 wherein AB is a measured value without LPS induction; AC is a measured value with LPS induction in the absence of a test compound; and AX is a measured value with LPS induction in the presence of a test compound. Inhibition rate of compounds with each concentration was calculated, and a value indicating 50% inhibition (IC50) was determined from the inhibition curve.

The target in series [2] is recombinant human p38 αMAP kinase (Homo sapiens, UniProt Q16539). Put plainly: Study on p38 αMAP kinase inhibitory activity (ATF-2 phosphorylation, Alpha Screen). Conditions: phosphorylation of biotinylated ATF2 by recombinant human p38 αMAP kinase, 30° C. for 30 minutes. The format is biochemical. The procedure: (1) Study on p38 αMAP Kinase Inhibitory Activity
Chain of recombinant human p38 αMAP kinase (Q16539 whole entry): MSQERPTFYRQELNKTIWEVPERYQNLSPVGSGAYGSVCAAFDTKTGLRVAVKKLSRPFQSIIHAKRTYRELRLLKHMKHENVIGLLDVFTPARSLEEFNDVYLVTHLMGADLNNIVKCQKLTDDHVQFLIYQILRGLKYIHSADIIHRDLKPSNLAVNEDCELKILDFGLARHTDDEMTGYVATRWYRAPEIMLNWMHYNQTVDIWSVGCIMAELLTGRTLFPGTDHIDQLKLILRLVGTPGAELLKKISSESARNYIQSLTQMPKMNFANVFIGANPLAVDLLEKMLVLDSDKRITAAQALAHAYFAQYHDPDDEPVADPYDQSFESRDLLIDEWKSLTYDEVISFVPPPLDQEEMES
Using activation transcription factor 2 (hereinafter abbreviated as ATF-2) which is a substrate for p38 αMAP kinase, the inhibitory action of the compounds of the present invention was investigated on the phosphorylation by a recombinant human p38 αMAP kinase.
A kinase buffer (25 mM Tris-HCl (pH 7.5), 5 mM β-glycerophosphate, 2 mM dithiothreitol, 0.1 mM Na3VO4, 10 mM MgCl2) containing a recombinant human p38 αMAP kinase was added to a 384-well plate (5 μL)(6.25 μg protein/well) for fluorescence measurement. After addition of a kinase buffer (5 μL) containing the compound of the present invention, the resulting mixture was incubated at room temperature for 20 minutes. A substrate mixture (5 μL) of biotinylated ATF2 of 5 μg/mL (Upstate Biotechnology #14-432), adenosine triphosphate (90 μmol/L)(Sigma #FL-AAS) and anti-phosphorylated ATF2 antibody (20-fold dilution)(Cell Signaling Technology #9221L) prepared separately was added thereto, and enzyme reaction was carried out at 30° C. for 30 minutes. After the reaction, Herpes buffer (5 μL) containing 0.25% BSA and 100 mM EDTA was added to stop the enzyme reaction. The amount of a complex of the phosphorylated ATF2 and anti-phosphorylated ATF2 antibody produced by the reaction was measured using an Alpha Screen™ Rabbit Detection kit (Packard #6760607).
The p38 αMAP kinase inhibitory activity, which is the effect of the compound of the present invention, was calculated as an inhibition rate (%) according to the following equation: Inhibition rate (%)={(AC minus AX)/(AC minus AB)}×100 wherein AB is a measured value without addition of the enzyme; AC is a measured value with addition of the enzyme in the absence of a test compound; and AX is a measured value with addition of the enzyme in the presence of a test compound.
Inhibition rate of compounds with each concentration was calculated, and a value indicating 50% inhibition (IC50) was determined from the inhibition curve.

Series [3] relates to TNF-α production induced by lipopolysaccharide (LPS). As to the kind of experiment: Rat cytokine-production model (LPS-induced TNF-α production in vivo). The settings on record: dose of 10 mg/kg orally; LPS 10 μg/kg intravenously after 2.0 hours; plasma ninety minutes after LPS. On the procedure: (3) Rat Cytokine-Production Model
The in vivo effect of the compound of the present invention was studied on TNF-α production induced by lipopolysaccharide (LPS) in rats.
A medium containing the compound of the present invention was orally administered to male […] (Charles River Japan, Inc.), and after 2.0 hours, lipopolysaccharide (LPS, 055:B5, Difco) was intravenously administered at the dose of 10 μg/kg (5 animals/group). Only a medium was orally administered to a control group (5 animals). Ninety minutes after the LPS treatment, heparinized blood collection was performed via the abdominal cava vein under anesthesia with ether, and blood plasma was obtained by centrifugation (12,000 rpm, 3 minutes, 4° C.). The obtained blood plasma sample was stored at −80° C. until it was used. TNF-α in the blood plasma was measured using an ELISA kit from Genzyme/Techne (#10516).
The inhibitory activity of the compound of the present invention against TNF-α production was calculated as an inhibition rate (%) according to the following equation: Inhibition rate (%)={(AC minus AX)/AC}×100 wherein AC is a measured value in case where no test compound was administered under LPS induction, and AX is a measured value in case where a test compound was administered under LPS induction.

Series [4] concerns the target Human CYP2C9 (Homo sapiens, UniProt P11712). Put plainly: Evaluation of human CYP2C9 inhibitory activity. Format: in vitro ADME. On the procedure:
(5) Evaluation of Human CYP2C9 Inhibitory Activity
The CYP2C9 inhibitory activity of the compound of the present invention was evaluated by enhancing measurement precision and improving measurement sensitivity on the basis of Sato et. al method [Pharmacokinetics, Xenobio. Metabol. and Dispos., 16(2), 115-126 (2001)].

For series [5], the system named is Human CYP3A4. Put plainly: Evaluation of human CYP3A4 induction activity (HepG2 cells, hPXR/CYP3A4 luciferase reporter). Format: in vitro ADME. The settings on record: concentration of 10 μM, rifampicin (10 μmol/L) set to 100%. On the procedure:
(4) Evaluation of Human CYP3A4 Induction Activity
HepG2 cells were cultured in a 5% CO2 incubator at 37° C., using a medium [MEM(+)] prepared by adding 1/100-fold amount of non-essential amino acids for MEM Eagle's medium (100×, ICN, #1681049), Antibiotic-Antimycotic (100×, Gibco, #15240-096), L-glutamine 200 mM (100×, Gibco, #25030-081) and 1/10-fold amount of fetal bovine serum (Sigma, #F9423) to a minimum essential medium Eagle (Mod.) with Earle's salts without L-glutamine. The medium was exchanged once every 2 to 3 days. About one-fifth of the cells which were cultured to a confluent state were passaged once a week. HepG2 cells which were cultured to almost confluent state in a 225 cm^2 culture flask were inoculated to a 24-well plate (Iwaki, #3820-024) to a concentration of 5×10^4 cells/MEM(+) of 500 μL/well. […] Twenty μL/well of the prepared cell lysis solution was transferred to a 96-well white plate (Perkin Elmer, #23300), and using a luminometer (Berthold Japan, Microlumat LB96P), each chemical luminescence was measured for 2 to 14 seconds after addition of luciferase assay reagent II [(LARII), 100 μL/well)] and for 2 to 14 seconds after addition of Stop & Glo reagent, 100 μL/well). […]
The CYP3A4 induction activity was calculated by setting a rise in transcription activity of CYP3A4 to 100% when using rifampicin (10 μmol/L) as a positive control drug.

Chain of Human CYP2C9 (P11712 whole entry): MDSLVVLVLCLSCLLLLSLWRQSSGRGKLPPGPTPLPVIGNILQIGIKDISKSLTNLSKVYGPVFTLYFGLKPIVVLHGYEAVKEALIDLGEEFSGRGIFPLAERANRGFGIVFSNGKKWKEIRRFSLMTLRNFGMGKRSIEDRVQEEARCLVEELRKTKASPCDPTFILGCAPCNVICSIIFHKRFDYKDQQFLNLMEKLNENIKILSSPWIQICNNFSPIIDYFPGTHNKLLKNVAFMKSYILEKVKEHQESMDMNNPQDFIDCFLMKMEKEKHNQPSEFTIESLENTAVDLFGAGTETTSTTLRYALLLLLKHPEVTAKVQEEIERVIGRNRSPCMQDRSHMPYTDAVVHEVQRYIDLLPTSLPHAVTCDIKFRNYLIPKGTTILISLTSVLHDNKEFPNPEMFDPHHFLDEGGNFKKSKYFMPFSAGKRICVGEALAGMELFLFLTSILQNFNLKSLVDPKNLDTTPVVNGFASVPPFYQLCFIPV

As to `Cc1ccc(-n2nc(C(C)(C)C)cc2NC(=O)Nc2ccc(OC3CCN(C(=O)c4ccc(CN5CCN(C)CC5)cc4)CC3)cc2C)cc1` [Example 17, N-[3-t-butyl-1-(4-methylphenyl)-1H-pyrazol-5-yl]-N′-{2-methyl-4-[(1-{4-[(4-methylpiperazin-1-yl)methyl]benzoyl}piperidin-4-yl)oxy]phenyl}urea], the half-inhibitory concentration (IC50) in series [1] turned out to be 17 nM; in series [2], 3.8 nM.
As to `Cc1ccc(-n2nc(C(C)(C)C)cc2NC(=O)Nc2ccc(CN3CCC(=O)N(c4ccccc4C)C3)cc2)cc1` [Example 4(1), N-[3-t-butyl-1-(4-methylphenyl)-1H-pyrazol-5-yl]-N′-(4-{[3-(2-methylphenyl)-4-oxotetrahydropyrimidin-1(2H)-yl]methyl}phenyl)urea], the “inhibition against in vivo TNF-α production induced by LPS stimulation” value in series [3] amounted to 72.8%. In addition, the IC50 in series [1] came to 2.3 nM; in series [2] it was 2.9 nM.
As to `Cc1ccc(-n2nc(C(C)(C)C)cc2NC(=O)Nc2cc(CN3CCN(C(=O)c4ccc(CN5CCN(C)CC5)cc4)CC3)ccc2Cl)cc1` [13(2), N-[3-t-butyl-1-(4-methylphenyl)-1H-pyrazol-5-yl]-N′-{2-chloro-5-[(4-{4-[(4-methylpiperazin-1-yl)methyl]benzoyl}piperazin-1-yl)methyl]phenyl}urea], the half-inhibitory concentration (IC50) in series [1] was found to be 21 nM; in series [2], 2.5 nM.
Turning to `Cc1ccc(-n2nc(C(C)(C)C)cc2NC(=O)Nc2ccc(CN3CCN(C(=O)c4ccc(CN5CCN(C)CC5)cc4)CC3)cc2C)cc1` [Example 13(1), N-[3-t-butyl-1-(4-methylphenyl)-1H-pyrazol-5-yl]-N′-{2-methyl-4-[(4-{4-[(4-methylpiperazin-1-yl)methyl]benzoyl}piperazin-1-yl)methyl]phenyl}urea], the IC50 in series [1] came out at 35 nM; in series [4] it was 21000 nM; in series [2], 5.6 nM. The CYP3A4 induction activity result in series [5] was “did not show CYP3A4 induction activity at all”.
